Test results published in EP0102327A2, “Barbituric acid derivatives as anthelmintica” (CIBA-GEIGY AG, priority 1982, dated 1984).

Columns and labels:
Fasciola hepatica = assay: Test on sheep infected with Fasciola hepatica (count of liver flukes in the bile ducts after treatment); assay type: in vivo, Schafe; details: artificially infected sheep, single dose of suspension by stomach tube or rumen injection; 30 and 20 mg/kg Körpergewicht; necropsy 3-4 weeks after treatment
Excerpt: Beispiel 16: Versuch an mit Fasciola hepatica infizierten Schafen
(§1) Der Wirkstoff wird in Form einer Suspension mit einer Magensonde oder durch Pansen-Injektion Schafen verabreicht, die vorher mit Fasciola hepatica künstlich infiziert wurden. Pro Versuch resp. pro Dosis werden 3 Tiere verwendet. Jedes Tier wird mit nur einer einzigen Dosis behandelt.
(§2) Eine erste Evaluierung erfolgt dadurch, dass die Anzahl der vor und nach der Behandlung im Kot der Schafe ausgeschiedenen Wurmeier verglichen werden.
Drei bis vier Wochen nach der Behandlung werden die Schafe getötet und seziert. Die Auswertung erfolgt durch das Auszählen der nach der Behandlung in den Gallengängen zurückgebliebenen Leberegel. Gleichzeitig und gleichartig infizierte aber unbehandelte Schafe dienen als Kontrolle resp. Vergleich. Der Unterschied der in den beiden Gruppen festgestellten Anzahl von Leberegeln ergibt den Wirkungsgrad des geprüften Wirkstoffs.
In diesem Versuch zeigen Wirkstoffe aus der Tabelle I bei Dosen von 30 und 20 mg/kg Körpergewicht stets eine mindestens 95%ige Wirksamkeit gegen Fasciola hepatica. Die Verbindungen Nr. 1, 2, 4, 5, 11, 12 und 13 zeigen jeweils vollständige Wirksamkeit (^= Abtötung 100 %).

[1] = tested on: Nematoden wie Haemonchus concortus und Trichostrongylus colubriformis; assay: Test on sheep infected with nematodes (worm count in the intestine after treatment); assay type: in vivo, Schafe; details: nematode-infected sheep, single dose; at each of the doses 20, 10, 5 and 2 mg/kg; necropsy 7-10 days after treatment
Excerpt: Beispiel 14: Versuch an mit Nematoden wie Haemonchus concortus und Trichostrongylus colubriformis infizierten Schafen
as §1, with “mit Nematoden wie Haemonchus concortus und Trichostrongylus colubriformis” for “mit Fasciola hepatica”, “werden 1 bis” for “werden”, “Jedes Schaf” for “Jedes Tier”
as §2
Sieben bis zehn Tage nach der Behandlung werden die Schafe getötet und seziert. Die Auswertung erfolgt durch Auszählung der nach der Behandlung im Darm zurückbleibenden Würmer. Gleichzeitig und gleichartig infizierte aber unbehandelte Schafe dienen als Kontrolle resp. Vergleich.
Schafe, die mit einer Suspension eines Wirkstoffes aus der Tabelle I behandelt werden, zeigen im Vergleich zu unbehandelten, aber infizierten Vergleichsgruppen einen um mindestens 95 i reduzierten Nematodenbefall. Die Wirkungsdosis beträgt 20, 10, 5 und 2 mg/kg. Mit den Verbindungen Nr. 1, 2, 4, 11, 12 und 13 wird bei jeder der Dosen 100 % Wirkung erzielt.

C=CCN1C(=O)C(C(=O)Nc2c(C)cc(Oc3ccc(C(F)(F)F)cc3)cc2C)C(=O)N(C)C1=O (stereo not shown) [compound 12]
Wirksamkeit gegen Fasciola hepatica (Abtötung) (Fasciola hepatica): 100% | Wirkung [1]: 100%

C=CCN1C(=O)C(C(=O)Nc2ccc(Oc3ccc(C(F)(F)F)cc3)cc2C)C(=O)N(C)C1=O (stereo not shown) [compound 5]
Wirksamkeit gegen Fasciola hepatica (Abtötung) (Fasciola hepatica): 100%

Cc1cc(Oc2ccc(C(F)(F)F)cc2)cc(C)c1NC(=O)C1C(=O)N(C)C(=O)N(C2CC2)C1=O (stereo not shown) [compound 11]
Wirksamkeit gegen Fasciola hepatica (Abtötung) (Fasciola hepatica): 100% | Wirkung [1]: 100%

CC(C)c1cc(Oc2ccc(C(F)(F)F)cc2)ccc1NC(=O)C1C(=O)N(C)C(=O)N(C2CC2)C1=O (stereo not shown) [compound 13]
Wirksamkeit gegen Fasciola hepatica (Abtötung) (Fasciola hepatica): 100% | Wirkung [1]: 100%

CC(C)c1cc(Oc2ccc(C(F)(F)F)cc2)ccc1NC(=O)C1C(=O)N(C)C(=O)N(C)C1=O [compound 1]
Wirksamkeit gegen Fasciola hepatica (Abtötung) (Fasciola hepatica): 100% | Wirkung [1]: 100%

Cc1cc(Oc2ccc(C(F)(F)F)cc2)ccc1NC(=O)C1C(=O)N(C)C(=O)N(C)C1=O [compound 4]
Wirksamkeit gegen Fasciola hepatica (Abtötung) (Fasciola hepatica): 100% | Wirkung [1]: 100%

Cc1cc(Oc2ccc(C(F)(F)F)cc2)cc(C)c1NC(=O)C1C(=O)N(C)C(=O)N(C)C1=O [compound 2]
Wirksamkeit gegen Fasciola hepatica (Abtötung) (Fasciola hepatica): 100% | Wirkung [1]: 100%
